Data reported in US9688637B2, “3-amidobenzamides and uses thereof for increasing cellular levels of A3G and other A3 family members” (Northwestern University, priority 2014, dated 2017).

Key:
A3G-Luc = A3G-Luc luciferase screen in 293T cells stably expressing A3G-Luc; assay type: cell-based, human; details: 48 hrs, DMSO = 100%
Source text: This background led to construction of cell lines to use in a search for compounds that might boost levels of A3s in the HIV target cells of the majority of HIV-infected persons who are non-controllers. The goal is to test a strategy of using such a booster in acute/early infection to prevent the hypothesized decrease of A3G and related A3s in an effort to increase “control” in persons lacking HLA B57/27-associated control. […] 293T and TZM-bl cells were maintained in DMEM (containing 4.5 g/liter glucose, L-glutamine, and sodium pyruvate) medium plus 10% fetal bovine serum, 50 IU/ml penicillin, and 50 μg/ml streptomycin at 37° C. and 5% CO2 throughout the experiments. […]. After collecting viral supernatant, 293T cells were infected with viral particles harboring the A3G-Luc expressing vector and selected with puromycin (0.75 μg/ml) for three days. Ten single cell clones of stable cells were isolated and tested for expression of A3G-Luc protein by both immunoblotting using antibody against A3G and measuring luciferase activity. Expressions in cell lines used for subsequent experiments are depicted in FIG. 2, upper panel. The A3G-Luc fusion protein was sensitive to Vif-mediated degradation (FIG. 3). Similar cells lines stably expressing A3F were constructed with the same methods (not shown).
To screen compounds that can boost A3G levels, 293T cells (25,000 cells per well in 96-well plate) stably expressing A3G-Luc protein or A3G-Luc/Vif proteins were plated. […] After 48 hrs of incubation with compounds culture medium was removed from each well and replaced with 100 μl of Britelite Plus luciferase assay substrate (PerkinElmer). Following 5 min. of incubation at room temperature, 75 μl of each cell lysate was transferred to a 96-well OptiPlate 96 (PerkinElmer) and luminescence was measured in a VICTOR X2 Multilabel Reader (PerkinElmer). Relative activity of compounds for their boosting capability A3G-Luc activity was calculated by plotting DMSO-treated A3G-Luc or A3G-Luc/Vif cells as 100%. Cellular cytotoxicity was measured by counting number of cells after 48 hrs of incubation with compounds compared to DMSO treated cells.

Wild-type HIV-1 [1] = test: A3F-mediated restriction of wild-type HIV-1; virus from 293T stably expressing A3F, TZM-bl readout; assay type: cell-based; details: Human immunodeficiency virus 1, HEK-293T, read-out: A3F-mediated Restriction by Compounds on Wild-type HIV-1 (% of HIV replication relative to DMSO treated Control)
Procedure: (§1) To test the effect of compounds shown to boost A3G-Luc levels in our screening systems on inhibition of wild-type HIV-1 replication by A3G or A3F, 293T cell lines stably expressing A3G or A3F were plated (750,000 cells per well in 6-well plate). At 24 hrs post plating, 1.5 μg of a wild-type (Vif-positive) HIV-1 proviral vector, NL4.3, was transfected into the 293T stable cell lines expressing either A3G or A3F. At 4 hrs post transfection, either DMSO as a control or an individual compound from series described below was added into the culture medium at a 10 μM concentration. At 1 day post transfection, supernatant fluids containing viral particles were filtered through […] filter to remove cellular debris. To test the effect of compound on HIV-1 replication, TZM-bl indicator cells were plated at a density of 10,000 cells/well in a 96 well culture plate 24 hrs prior to infection. TZM-bl indicator cells express luciferase gene under the control of HIV LTR promoter and are routinely used to measure HIV-1 replication capability. On the day of infection, the culture medium was removed and the cells inoculated with equal amount of HIV-1 particles in triplicate with 100 μl of viral supernatants in culture medium containing 20 μg/ml DEAE-dextran. After 24 hrs of incubation, culture medium was removed from each well and replaced with 100 μl of Britelite Plus luciferase assay substrate. Following 5 min. of incubation at room temperature, 75 μl of each cell lysate was transferred to a 96-well OptiPlate 96 and luminescence was measured in a VICTOR X2 Multilabel Reader as described above. Relative infectivity was calculated by plotting luciferase activity from viral particle from DMSO treated A3G or A3F cell lines as 100%. We only tested effect A3F- or A3G mediated restriction of HIV-1 replication by compounds boosting luciferase activity by more than 160% compared to DMSO control sample.

Wild-type HIV-1 [2] = test: A3G-mediated restriction of wild-type HIV-1; virus from 293T stably expressing A3G, TZM-bl readout; assay type: cell-based; details: Human immunodeficiency virus 1, HEK-293T, read-out: A3G-mediated Restriction by Compounds on Wild-type HIV-1 (% of HIV replication relative to DMSO treated Control)
Procedure: as §1

A3G-Luc/Vif [3] = test: A3G-Luc/Vif luciferase screen in 293T cells stably co-expressing A3G-Luc and HIV-1 Vif; assay type: cell-based, human; details: 10 μM, 48 hrs, DMSO = 100%
Procedure: FIG. 6. 293T cell clone #6 stably co-expressing A3G-Luciferase fusion protein together with HIV-1 Vif was used. Small molecule compounds were tested for their effects on stability of A3G and inhibition of Vif activity against A3G by measuring luciferase activity, relative to treatment with control DMSO only. The relative % luciferase activity was higher after treatment with NU compounds than DMSO.
[…]. After sorting, expression of both A3G-Luc and Vif was confirmed by immunoblotting using antibody against both A3G and Vif.
(§2) To screen compounds that can boost A3G levels, 293T cells (25,000 cells per well in 96-well plate) stably expressing A3G-Luc protein or A3G-Luc/Vif proteins were plated. After 24 hrs post plating culture medium was replaced with 100 μl of new medium containing either DMSO as a control or various compounds (10 μM concentration). After 48 hrs of incubation with compounds culture medium was removed from each well and replaced with 100 μl of Britelite Plus luciferase assay substrate (PerkinElmer). Following 5 min. of incubation at room temperature, 75 μl of each cell lysate was transferred to a 96-well OptiPlate 96 (PerkinElmer) and luminescence was measured in a VICTOR X2 Multilabel Reader (PerkinElmer). Relative activity of compounds for their boosting capability A3G-Luc activity was calculated by plotting DMSO-treated A3G-Luc or A3G-Luc/Vif cells as 100%. Cellular cytotoxicity was measured by counting number of cells after 48 hrs of incubation with compounds compared to DMSO treated cells.

293T cells = test: Cellular cytotoxicity by counting cells after 48 hrs with compound vs DMSO; assay type: cell-based; details: 48 hrs; for Cytotoxicity: Cell Proliferation Blocked at: concentration at which proliferation was blocked
Procedure: as §2

A3G-Luc/Vif [4] = test: A3G-Luc/Vif luciferase screen in 293T cells stably co-expressing A3G-Luc and HIV-1 Vif; assay type: cell-based, human; details: 30 μM, 48 hrs, DMSO = 100%
BC-1 = BC-1 primary effusion lymphoma cell proliferation; assay type: cell-based; details: primary effusion lymphoma (PEL) cell line (FIG. 10)
Source text: FIG. 10. A primary effusion lymphoma (PEL) cell line (BC-1, infected with both Kaposi's sarcoma herpesvirus and Epstein Barr Virus) is also killed by the listed compounds.

Structure (SMILES)	A3G-Luc Activity (% of Relative Light Units compared to DMSO treated control) (A3G-Luc; 10 μM) [%]	activity at 10 µM (Wild-type HIV-1 [1]) [%]	activity at 10 µM (Wild-type HIV-1 [2]) [%]	Vif-A3G-Luc Activity (% of RLUs compared to DMSO treated control) (A3G-Luc/Vif [3]) [%]	also measured
COc1ccc(C(=O)Nc2ccc(Cl)c(Cl)c2)cc1NC(=O)C1CCCO1 (centres unmarked) [NU-464]	288	77	77	170	–
COCCC(=O)Nc1cc(C(=O)Nc2ccc(Cl)c(Cl)c2)ccc1OC [NU-463]	287	67	64	178	–
COc1ccc(C(=O)Nc2cc(OC)c(OC)c(OC)c2)cc1N [NU-49]	–	–	–	–	Cytotoxicity: Cell Death at (293T cells; concentration at which cell death was seen): Cell Death at 10 μM
COCCOc1ccc(C(=O)Nc2ccc(Cl)c(Cl)c2)cc1NC(=O)CC1CC1 [NU-617]	191	–	74	182	–
COc1ccc(C(=O)Nc2cc(OC)c(OC)c(OC)c2)cc1NC(C)=O [NU-58]	–	–	–	–	Vif-A3G-Luc Activity (% of RLUs compared to DMSO treated control) (A3G-Luc/Vif [4]): 93%; A3G-Luc Activity (% of Relative Light Units compared to DMSO treated control) (A3G-Luc; 30 μM): 123%
COC(=O)Nc1cc(C(=O)Nc2ccc(Cl)c(Cl)c2)ccc1OC [NU-460]	254	34	34	119	–
COc1ccc(C(=O)Nc2ccc(Cl)c(Cl)c2)cc1NC(=O)CN(C)C [NU-471]	238	65	66	175	–
CCC(=O)Nc1cc(C(=O)Nc2cc(OC)c(OC)c(OC)c2)ccc1OC [NU-57]	–	–	–	–	Vif-A3G-Luc Activity (% of RLUs compared to DMSO treated control) (A3G-Luc/Vif [4]): 74%; A3G-Luc Activity (% of Relative Light Units compared to DMSO treated control) (A3G-Luc; 30 μM): 87%
COc1ccc(C(=O)Nc2ccc(Cl)c(Cl)c2)cc1NS(C)(=O)=O [NU-467]	194	64	79	146	–
COc1ccc(C(=O)Nc2ccc(Cl)c(Cl)c2)cc1NC(=O)C1CC1C (centres unmarked) [NU-465]	193	53	47	106	–
COc1ccc(C(=O)Nc2ccc(Cl)c(Cl)c2)cc1N(C)C(=O)C(C)C [NU-611]	67	–	–	75	BC-1 cell proliferation (BC-1): inhibit BC-1 cell proliferation
COCCOc1ccc(C(=O)Nc2ccc(Cl)c(Cl)c2)cc1NC(=O)C1CCC1 [NU-616]	171	–	95	152	–
COc1ccc(C(=O)Nc2ccc(Cl)c(Cl)c2)cc1NC(=O)C(C)(C)C [NU-458]	189	45	54	123	–
CCOc1ccc(C(=O)Nc2ccc(Cl)c(Cl)c2)cc1NC(=O)C1CCC1 [NU-612]	202	96	81	178	–
CCOc1ccc(C(=O)Nc2ccc(Cl)c(Cl)c2)cc1NC(=O)CC1CC1 [NU-613]	186	85	98	158	–
COc1ccc(C(=O)Nc2ccc(F)cc2)cc1NC(=O)C(C)C [NU-564]	162	–	72	102	–
CC(C)(C)OC(=O)NCCOCCOc1ccc(C(=O)Nc2ccc(Cl)c(Cl)c2)cc1NC(=O)CC1CC1 [NU-126]	4.8	–	–	–	Cytotoxicity: Cell Proliferation Blocked at (293T cells): Cell Proliferation Blocked at 10 μM
CC(C)C(=O)Nc1cc(C(=O)Nc2ccc(Cl)c(Cl)c2)ccc1OCCOCCNC(=O)OC(C)(C)C [NU-125]	25	–	–	–	Cytotoxicity: Cell Proliferation Blocked at (293T cells): Cell Proliferation Blocked at 10 μM
COc1ccc(NC(=O)c2ccc(OC)c(NC(=O)C(C)C)c2)cc1 [NU-54]	–	–	–	–	Vif-A3G-Luc Activity (% of RLUs compared to DMSO treated control) (A3G-Luc/Vif [4]): 116%; A3G-Luc Activity (% of Relative Light Units compared to DMSO treated control) (A3G-Luc; 30 μM): 137%
COCC(=O)Nc1cc(C(=O)Nc2ccc(Cl)c(Cl)c2)ccc1OC [NU-462]	282	53	62	170	–
CC(C)C(=O)Nc1cc(C(=O)Nc2ccc(Cl)c(Cl)c2)ccc1OCCOCCNC(=O)CCCCC1SC[C@@H]2NC(=O)N[C@H]12 (some centres unmarked) [NU-127]	68	–	–	–	Cytotoxicity: Cell Proliferation Blocked at (293T cells): Cell Proliferation Blocked at 10 μM
CC(C)(C)OC(=O)NCCOCCOc1ccc(C(=O)Nc2ccc(Cl)c(Cl)c2)cc1N [NU-124]	25	–	–	–	Cytotoxicity: Cell Proliferation Blocked at (293T cells): Cell Proliferation Blocked at 10 μM
COc1ccc(C(=O)Nc2ccc(Cl)c(Cl)c2)cc1NC(=O)N(C)C [NU-472]	238	49	61	146	–
COc1ccc(C(=O)Nc2ccc(Cl)c(Cl)c2)cc1NS(=O)(=O)C(C)C [NU-468]	213	48	58	147	–
COc1ccc(C(=O)Nc2cc(OC)c(OC)c(OC)c2)cc1NC(=O)C(C)C [NU-56]	–	–	–	–	Vif-A3G-Luc Activity (% of RLUs compared to DMSO treated control) (A3G-Luc/Vif [4]): 93%; A3G-Luc Activity (% of Relative Light Units compared to DMSO treated control) (A3G-Luc; 30 μM): 114%
